The subject of assay [1] is Phospho-ERK1/2 in DLD1 cells. In words: Phospho-ERK1/2 expression inhibition in DLD1 cells. The assay is classed as cell-based. The conditions noted are these: Homo sapiens, DLD-1, 4 hours, read-out: DLD1 pERK IC50. The procedure:
Example 23: Phospho-ERK1/2 Expression Inhibition in DLD1 Cells
DLD1 cells were obtained from American Type Culture Collection (ATCC). DLD1 cells were plated in 96-well plates (VWR #10062-900, or Corning #3904) in 90 uL culture medium at a density of 15,000 cells/well in the RPM11640 growth medium containing 10% FBS and 1% Penicillin Streptomycin, and then incubated at 37° C. overnight. The following day, the test compound was administered to the cells by using 1000×x compound stock solution prepared in DMSO at various concentrations. 1000× compound stock solution was first diluted in culturing medium to 10×, then 10 uL compound medium was added to each well in the cell plates. After administration of the compound, the cells were then incubated at 37° C. for 4 hours. Upon completion, the cells were washed with PBS briefly. 150 uL/well of 4% formaldehyde was added and the plates were incubated at room temperature for 20 mins. The cells were washed with PBS briefly, and permeabilized with 150 uL/well of ice cold 100% methanol for 10 mins. The cells were washed with PBS briefly and blocked with 100 uL/well LI-COR blocking buffer for 1 hr at room temperature with gentle shaking. The cells were incubated overnight at 4° C. with 50 uL primary antibody rabbit anti-Phospho-ERK1/2 (1: 500, Cell Signaling, #4370) diluted in Intercept Blocking Buffer (LI-COR, #927-60001) containing 0.1% Tween 20. The next day, the cells were washed with 200 uL PBS containing 0.1% Tween 20, 5×5 mins at room temperature with gentle shaking, and incubated with 50 uL secondary antibody, IRDye® 800CW Goat anti-Rabbit IgG (LI-COR, #926-32211), 1:1000, in LI-COR blocking buffer with 0.2% Tween 20 for 1 hr at room temperature with gentle shaking. The cells were washed with 200 uL PBS containing 0.1% Tween 20, 5×5 mins at room temperature with gentle shaking. The cells were washed with PBS for 5 mins. 100 uL fresh PBS was added to each well and the plates were imaged on a LI-COR Odyssey CLX plate reader.

The target of assay [2] is SOS1/KRAS-G12D (Homo sapiens (Human), UniProt Q07889). In words: SOS1/KRAS-G12D binding inhibition assay (AlphaScreen). The conditions noted are these: GST-SOS1 and 6*His KRAS-G12D, read-out: KrasG12D/SOS1 binding IC50. The procedure: Example 22: SOS1/KRAS-G12D Binding Inhibition Assay
Chain of SOS1/KRAS-G12D (Q07889 564-1049 limits assumed): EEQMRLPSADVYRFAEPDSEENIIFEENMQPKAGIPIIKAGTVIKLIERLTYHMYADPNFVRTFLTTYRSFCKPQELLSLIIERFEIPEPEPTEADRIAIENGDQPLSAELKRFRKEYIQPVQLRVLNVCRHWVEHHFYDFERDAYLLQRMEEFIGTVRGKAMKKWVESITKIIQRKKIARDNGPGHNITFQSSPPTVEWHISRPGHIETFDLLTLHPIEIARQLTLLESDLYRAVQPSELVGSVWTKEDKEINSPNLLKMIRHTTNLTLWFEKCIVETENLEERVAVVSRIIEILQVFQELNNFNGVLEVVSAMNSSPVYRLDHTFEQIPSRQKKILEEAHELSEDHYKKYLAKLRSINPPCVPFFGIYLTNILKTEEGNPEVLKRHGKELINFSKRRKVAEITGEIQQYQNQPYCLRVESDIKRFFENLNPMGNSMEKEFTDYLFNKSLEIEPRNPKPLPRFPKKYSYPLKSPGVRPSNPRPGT
SOS1 binding affinity of candidate compounds was measured by monitoring the interaction of SOS1 with KRAS-G12D in the presence of the test compound. Briefly, 5 nM GST tagged SOS1 proteins (final concentration) were pre-incubated with 50 nM 6*His tagged KRAS-G12D proteins (final concentration) in an assay buffer containing 10 mM HEPES, pH 7.4, 150 mM NaCl, 1 mM DTT, 5 mM MgCl2, 0.1% Tween-20, and 0.05% BSA for 30 minutes. The test compounds in 2% DMSO (final concentration) at various concentrations were then added to the reaction mixture and incubated for another 30 minutes at 4° C. 5 ug/ml GSH AlphaScreen donor beads (PerkinElmer, 6765300) and 5 ug/ml nickel chelate (Ni-NTA) AlphaScreen acceptor beads (PerkinElmer, 6760619C) (final concentrations) were then added to the mixture. After an incubation of 2 hours at 4° C., the fluorescent signals were obtained on the EnVision® 2105 Multilabel Plate Reader (PerkinElmer).
Raw AlphaScreen data were converted to a percentage of inhibition (relative to DMSO) using the following equations: • a) For a given test compound concentration X:
Signal (X)=Signal (SOS1 & KRAS-G12D & compound)-Signal (buffer & KRAS-G12D & compound)
Percentage of inhibition at concentration X=[1−Signal (X)/Signal (DMSO)]*100% b)
The IC50 values were determined by nonlinear regression of plots of [inhibitor] vs. percentage of inhibition with variable slope, analyzed using GraphPad Prism 9.
Background: Alpha assays give light when donor and acceptor beads are brought close together.

Assay [3] has as its system K562 cells. The assay is described as follows: Cell growth inhibition of K562 cells (CellTiter-Glo). The assay is classed as cell-based. The following applies: Homo sapiens, 120 h, 5 days. The procedure:
Example 24: Cell Growth Inhibition of K562 Cells
K562 cells were obtained from American Type Culture Collection (ATCC). For cell growth assay, K562 cells were seeded in 96-well plates at 1000 cells/well in 90 μl of RPM11640 growth medium containing 10% FBS and 1% Penicillin Streptomycin, and then incubated at 37° C. for 1 hour. The test compound was administered to the cells by using 1000× compound stock solution prepared in DMSO at various concentrations. 1000× compound stock solution was first diluted in culturing medium to 10×, then 10 uL compound medium was added to each well in the cell plates. After administration of the compound, the cells were then incubated at 37° C. for 5 days. Upon completion, the plates were equilibrated at room temperature for approximately 10 minutes. 100 ul of CellTiter-Glo® Reagent (Promega) was added to each well. The plates were then incubated at room temperature for 10 minutes and luminescence was recorded by EnSpire plate reader (PerkinElmer).
(Cellular ATP, detected with luciferase, serves as a proxy for viable cell number.)

Molecules are shown by their SMILES.

With `Cc1c([C@@H](C)Nc2ccnc3ccc(N4CCC5(CCN(C)C5=O)CC4)cc23)cccc1C(F)(F)F` [Compound 23, (R)-2-methyl-8-(4-((1-(2-methyl-3-(trifluoromethyl)phenyl)ethyl)amino)quinolin-6-yl)-2,8-diazaspiro[4.5]decan-1-one], the IC50 in assay [1] was more than 500 nM; in assay [2], 10 to 100 nM. The GI50 (usually the concentration giving 50% growth inhibition) in assay [3] was 100 to 500 nM.

In the case of `Cc1c([C@@H](C)Nc2ccnc3ccc(N4CCN(C(=O)C5CCOC5)CC4)cc23)cccc1C(F)(F)F` (stereo partly drawn) [Compound 6, (4-(4-(((R)-1-(2-methyl-3-(trifluoromethyl)phenyl)ethyl)amino)quinolin-6-yl)piperazin-1-yl)(tetrahydrofuran-3-yl)methanone], the figures for the IC50 in assay [1] and in assay [2] were 150 to 500 nM and 10 to 100 nM, respectively. In assay [3], the GI50 was in the range of 100 to 500 nM.

For the molecule `C[C@@H](Nc1ccnc2ccc(N3CCN(C(=O)[C@H]4CCOC4)CC3)cc12)c1cccc(C(F)F)c1F` [Compound 14, (4-(4-(((R)-1-(3-(difluoromethyl)-2-fluorophenyl)ethyl)amino)quinolin-6-yl)piperazin-1-yl)((S)-tetrahydrofuran-3-yl)methanone], the IC50 in assay [1] was 150 to 500 nM; in assay [2], not above 10 nM. For the same molecule, the GI50 in assay [3] was not above 100 nM.

For `CC(=O)N1CCC(c2ccc3nccc(N[C@H](C)c4cccc(C(F)F)c4F)c3c2)CC1` [Compound 13, (R)-1-(4-(4-((1-(3-(difluoromethyl)-2-fluorophenyl)ethyl)amino)quinolin-6-yl)piperidin-1-yl)ethan-1-one], the IC50 in assay [1] was 150 to 500 nM; in assay [2], not above 10 nM. In assay [3], this molecule had a GI50 not above 100 nM.

With `C[C@@H](Nc1ccnc2ccc(N3CC[C@@H](NC(=O)OC(C)(C)C)C3)cc12)c1cccc(C(F)F)c1F` [Compound 8, tert-butyl ((R)-1-(4-(((R)-1-(3-(difluoromethyl)-2-fluorophenyl)ethyl)amino)quinolin-6-yl)pyrrolidin-3-yl)carbamate], the IC50 was 150 to 500 nM in assay [1] and 10 to 100 nM in assay [2]. This molecule also yielded a GI50 in assay [3] of more than 500 nM.

Turning to `Cc1c([C@@H](C)Nc2ccnc3ccc(N4CCN[C@H](C)C4)cc23)cccc1C(F)(F)F` [Compound 50, N-((R)-1-(2-methyl-3-(trifluoromethyl)phenyl)ethyl)-6-((R)-3-methylpiperazin-1-yl)quinolin-4-amine], the IC50 was more than 500 nM in assay [1] and 10 to 100 nM in assay [2]. This molecule also returned a GI50 in assay [3] of 100 to 500 nM.

In the case of `CC(=O)N1CC[C@](F)(c2ccc3nccc(N[C@H](C)c4cccc(C(F)F)c4F)c3c2)C1` [Compound 85, 1-((S)-3-(4-(((R)-1-(3-(difluoromethyl)-2-fluorophenyl)ethyl)amino)quinolin-6-yl)-3-fluoropyrrolidin-1-yl)ethan-1-one], the IC50 in assay [1] was more than 500 nM; in assay [2] it was not above 10 nM. The same molecule returned a GI50 in assay [3] of 100 to 500 nM.

For `COC1(c2ccc3nccc(N[C@H](C)c4cccc(C(F)(F)F)c4C)c3c2)CCN(C(=O)CC#N)CC1` [Compound 77, (R)-3-(4-methoxy-4-(4-((1-(2-methyl-3-(trifluoromethyl)phenyl)ethyl)amino)quinolin-6-yl)piperidin-1-yl)-3-oxopropanenitrile], the results for the IC50 in assay [1] and in assay [2] were 150 to 500 nM and 10 to 100 nM, respectively. This molecule also showed a GI50 in assay [3] of more than 500 nM.

Turning to `Cc1c([C@@H](C)Nc2ccnc3ccc(N4CCCNCC4)cc23)cccc1C(F)(F)F` [Compound 63, (R)-6-(1,4-diazepan-1-yl)-N-(1-(2-methyl-3-(trifluoromethyl)phenyl)ethyl)quinolin-4-amine], the figures for the IC50 in assay [1] and in assay [2] were more than 500 nM and 10 to 100 nM, respectively. In addition, the concentration for 50% growth inhibition (GI50) in assay [3] was more than 500 nM.

In the case of `CC(=O)N1CCN(c2ccc3nccc(N[C@H](C)c4cccc(C(F)(F)F)c4C)c3c2)CC1(C)C` [Compound 36, (R)-1-(2,2-dimethyl-4-(4-((1-(2-methyl-3-(trifluoromethyl)phenyl)ethyl)amino)quinolin-6-yl)piperazin-1-yl)ethan-1-one], the IC50 in assay [1] was more than 500 nM; in assay [2], 10 to 100 nM. In assay [3], the GI50 fell in the range of 100 to 500 nM.

Take `CC(=O)N1CCN(c2ccc3nccc(N[C@H](C)c4cccc(C(F)(F)F)c4C)c3c2)[C@@H](C)C1` [Compound 61, 1-((S)-3-methyl-4-(4-(((R)-1-(2-methyl-3-(trifluoromethyl)phenyl)ethyl)amino)quinolin-6-yl)piperazin-1-yl)ethan-1-one]: the IC50 in assay [1] was more than 500 nM; in assay [2], more than 100 nM. For the same molecule, the GI50 in assay [3] is more than 500 nM.

In the case of `COC(=O)N1CC[C@@](OC)(c2ccc3nccc(N[C@H](C)c4cccc(C(F)F)c4F)c3c2)C1` [Compound 90, methyl (R)-3-(4-(((R)-1-(3-(difluoromethyl)-2-fluorophenyl)ethyl)amino)quinolin-6-yl)-3-methoxypyrrolidine-1-carboxylate], the IC50 in assay [1] was more than 500 nM; in assay [2], 10 to 100 nM. Also, the GI50 in assay [3] lay within 100 to 500 nM.

Consider `Cc1c([C@@H](C)Nc2ccnc3ccc(N4CCN(c5nccs5)CC4)cc23)cccc1C(F)(F)F` [Compound 34, (R)-N-(1-(2-methyl-3-(trifluoromethyl)phenyl)ethyl)-6-(4-(thiazol-2-yl)piperazin-1-yl)quinolin-4-amine], for which the values for the IC50 in assay [1] and in assay [2] were more than 500 nM and more than 100 nM, respectively. The GI50 in assay [3] lay in the range of 100 to 500 nM.

For the molecule `CNC1CCN(c2ccc3nccc(N[C@H](C)c4cccc(C(F)(F)F)c4C)c3c2)CC1` [Compound 28, (R)-N-(1-(2-methyl-3-(trifluoromethyl)phenyl)ethyl)-6-(4-(methylamino)piperidin-1-yl)quinolin-4-amine], the IC50 in assay [1] is more than 500 nM; in assay [2], 10 to 100 nM. Further, the 50% growth inhibitory concentration (GI50) in assay [3] was more than 500 nM.

As for `COC(=O)N1CCC(OC)(c2ccc3nccc(N[C@H](C)c4cccc(C(F)F)c4F)c3c2)CC1` [Compound 100, methyl (R)-4-(4-((1-(3-(difluoromethyl)-2-fluorophenyl)ethyl)amino)quinolin-6-yl)-4-methoxypiperidine-1-carboxylate], the IC50 in assay [1] is 150 to 500 nM; in assay [2] it was not above 10 nM. The 50% growth inhibitory concentration (GI50) in assay [3] is 100 to 500 nM.

For `Cc1c([C@@H](C)Nc2ccnc3ccc(N4CC[C@@H](N)C4)cc23)cccc1C(F)(F)F` [Compound 20, 6-((R)-3-aminopyrrolidin-1-yl)-N-((R)-1-(2-methyl-3-(trifluoromethyl)phenyl)ethyl)quinolin-4-amine], the IC50 in assay [1] is more than 500 nM; in assay [2], more than 100 nM. This molecule also had a GI50 in assay [3] of more than 500 nM.

For `CO[C@@]1(c2ccc3nccc(N[C@H](C)c4cccc(C(F)F)c4F)c3c2)CCN(C(C)=O)C1` [Compound 75, 1-((R)-3-(4-(((R)-1-(3-(difluoromethyl)-2-fluorophenyl)ethyl)amino)quinolin-6-yl)-3-methoxypyrrolidin-1-yl)ethan-1-one], the IC50 in assay [1] was more than 500 nM; in assay [2], not above 10 nM. Moreover, the GI50 in assay [3] is 100 to 500 nM.

The record behind these values is patent publication US20240208909A1, “SUBSTITUTED QUINOLINE DERIVATIVES HAVING SOS1 INHIBITION ACTIVITIES AND USES THEREOF” (Accutar Biotechnology Inc., priority 2022, published 2024).
